Experiments:
Type in all cases: in vivo
[1] = test system: Nilaparvata lugens (Brown Plant Hopper); assay: Nilaparvata lugens (Brown Plant Hopper): Igr, Feeding/Contact; settings: 360 h, application rate of 50 ppm, sprayed rice plants, N3 nymphs, assessed for effect on F1 generation 15 days after the treatment
Protocol: Example B11: Nilaparvata lugens (Brown Plant Hopper): Igr, Feeding/Contact
Rice plants were treated with the diluted test solutions in a spray chamber. After drying plants were infested with ˜20 N3 nymphs. 7 days after treatment adults were removed and 15 days after the treatment samples were assessed for effect on F1 generation.

[2] = test system: Diabrotica Balteata (Corn Root Worm); assay: Diabrotica balteata (Corn Root Worm), sprayed maize sprouts; settings: 96 h, application rate of 200 ppm, L2 larvae on sprayed maize sprouts, 4 days after infestation, read-out: effect in at least one of the two categories (mortality or growth inhibition)
Protocol: Example B2: Diabrotica Balteata (Corn Root Worm)
Maize sprouts placed onto an agar layer in 24-well microtiter plates were treated with aqueous test solutions prepared from 10'000 ppm DMSO stock solutions by spraying. After drying, the plates were infested with L2 larvae (6 to 10 per well). The samples were assessed for mortality and growth inhibition in comparison to untreated samples 4 days after infestation.

[3] = test system: Spodoptera littoralis (Egyptian Cotton Leaf Worm); assay: Spodoptera littoralis (Egyptian Cotton Leaf Worm), sprayed cotton leaf discs; settings: foliar, 72 h, application rate of 200 ppm, L1 larvae on sprayed cotton leaf discs, 3 days after infestation, read-out: control (mortality, anti-feeding effect or growth inhibition)
Protocol: Example B8: Spodoptera littoralis (Egyptian Cotton Leaf Worm)
Cotton leaf discs were placed onto agar in 24-well microtiter plates and sprayed with aqueous test solutions prepared from 10'000 ppm DMSO stock solutions. After drying the leaf discs were infested with five L1 larvae. The samples were assessed for mortality, anti-feeding effect, and growth inhibition in comparison to untreated samples 3 days after infestation. Control of Spodoptera littoralis by a test sample is given when at least one of the categories mortality, anti-feedant effect, and growth inhibition is higher than the untreated sample.

[4] = test system: Nilaparvata lugens (Brown Plant Hopper); assay: Nilaparvata lugens (Brown Plant Hopper): Larvicide, Feeding/Contact; settings: 168 h, application rate of 50 ppm, N3 nymphs on sprayed rice plants, 7 days after the treatment
Protocol: Example B10: Nilaparvata lugens (Brown Plant Hopper): Larvicide, Feeding/Contact
Rice plants were treated with the diluted test solutions in a spray chamber. After drying plants were infested with ˜20 N3 nymphs. 7 days after the treatment samples were assessed for mortality and growth regulation.

[5] = test system: Euschistus heros (Neotropical Brown Stink Bug); assay: Euschistus heros (Neotropical Brown Stink Bug), sprayed soybean leaves; settings: 120 h, application rate of 200 ppm, N2 nymphs on sprayed soybean leaves, 5 days after infestation, read-out: effect in at least one of the two categories (mortality or growth inhibition)
Protocol: Example B3: Euschistus heros (Neotropical Brown Stink Bug)
Soybean leaves on agar in 24-well microtiter plates were sprayed with aqueous test solutions prepared from 10'000 ppm DMSO stock solutions. After drying the leaves were infested with N2 nymphs. The samples were assessed for mortality and growth inhibition in comparison to untreated samples 5 days after infestation.

[6] = test system: Plutella xylostella (Diamond Back Moth); assay: Plutella xylostella (Diamond Back Moth), treated artificial diet; settings: 192 h, application rate of 200 ppm, eggs on treated artificial diet, 8 days after infestation, read-out: effect in at least one of the two categories (mortality or growth inhibition)
Protocol: Example B5: Plutella xylostella (Diamond Back Moth)
24-well microtiter plates with artificial diet were treated with aqueous test solutions prepared from 10'000 ppm DMSO stock solutions by pipetting. After drying, Plutella eggs were pipetted through a plastic stencil onto a gel blotting paper and the plate was closed with it. The samples were assessed for mortality and growth inhibition in comparison to untreated samples 8 days after infestation.

[7] = test system: Myzus persicae (Green Peach Aphid); assay: Myzus persicae (Green Peach Aphid): Feeding/Contact Activity; settings: foliar, 144 h, application rate of 200 ppm, aphid population of mixed ages on sprayed sunflower leaf discs, 6 days after infestation
Protocol: Example B6: Myzus persicae (Green Peach Aphid): Feeding/Contact Activity
Sunflower leaf discs were placed onto agar in a 24-well microtiter plate and sprayed with aqueous test solutions prepared from 10'000 ppm DMSO stock solutions. After drying, the leaf discs were infested with an aphid population of mixed ages. The samples were assessed for mortality 6 days after infestation.

[8] = test system: Myzus persicae (Green Peach Aphid); assay: Myzus persicae (Green Peach Aphid): Systemic Activity; settings: 144 h, test rate of 24 ppm, roots of infested pea seedlings placed into test solutions, 6 days
Protocol: Example B7: Myzus persicae (Green Peach Aphid): Systemic Activity
Roots of pea seedlings infested with an aphid population of mixed ages were placed directly into aqueous test solutions prepared from 10'000 DMSO stock solutions. The samples were assessed for mortality 6 days after placing seedlings into test solutions.

[9] = test system: Nilaparvata lugens (Brown Plant Hopper); assay: Nilaparvata lugens (Brown Plant Hopper): Larvicide, Systemic into Water; settings: 168 h, test rate of 12.5 ppm, rice plants in nutritive solution, N3 nymphs, 7 days after infestation
Protocol: Example B12: Nilaparvata lugens (Brown Plant Hopper): Larvicide, Systemic into Water
Rice plants cultivated in a nutritive solution were treated with the diluted test solutions into nourishing cultivation system. 1 day after application plants were infested with ˜20 N3 nymphs. 7 days after infestation samples were assessed for mortality and growth regulation.

[10] = test system: Frankliniella occidentalis (Western Flower Thrips); assay: Frankliniella occidentalis (Western Flower Thrips): Feeding/Contact Activity; settings: foliar, 168 h, application rate of 200 ppm, population of mixed ages on sprayed sunflower leaf discs, 7 days after infestation
Protocol: Example B4: Frankliniella occidentalis (Western Flower Thrips): Feeding/Contact Activity
Sunflower leaf discs were placed on agar in 24-well microtiter plates and sprayed with aqueous test solutions prepared from 10'000 DMSO stock solutions. After drying the leaf discs were infested with a Frankliniella population of mixed ages. The samples were assessed for mortality 7 days after infestation.

[11] = test system: Bemisia tabaci (Cotton White Fly); assay: Bemisia tabaci (Cotton White Fly): Feeding/Contact Activity; settings: foliar, 144 h, application rate of 200 ppm, adult white flies on sprayed cotton leaf discs, 6 days after incubation
Protocol: Example B1: Bemisia tabaci (Cotton White Fly): Feeding/Contact Activity
Cotton leaf discs were placed on agar in 24-well microtiter plates and sprayed with aqueous test solutions prepared from 10'000 ppm DMSO stock solutions. After drying the leaf discs were infested with adult white flies. The samples were checked for mortality 6 days after incubation.

[12] = test system: Tetranychus urticae (Two-Spotted Spider Mite); assay: Tetranychus urticae (Two-Spotted Spider Mite): Feeding/Contact Activity; settings: foliar, 192 h
Protocol: Example B9: Tetranychus urticae (Two-Spotted Spider Mite): Feeding/Contact Activity
Bean leaf discs on agar in 24-well microtiter plates were sprayed with aqueous test solutions prepared from 10'000 ppm DMSO stock solutions. After drying the leaf discs were infested with a mite population of mixed ages. The samples were assessed for mortality on mixed population (mobile stages) 8 days after infestation.

CCS(=O)(=O)c1cc(N(C)C(C)=O)cnc1N1Cc2cnc(C(F)(F)F)cc2C1=O [Compound P3, N-[5-ethylsulfonyl-6-[1-oxo-6-(trifluoromethyl)-3H-pyrrolo[3,4-c]pyridin-2-yl]-3-pyridyl]-N-methyl-acetamide]
≥ 80%: mortality at 50 ppm [1] | percent effect (mortality or growth inhibition) at 200 ppm [2] | percent control (mortality, anti-feedant effect or growth inhibition) at 200 ppm [3] | mortality at 50 ppm [4] | percent effect (mortality or growth inhibition) at 200 ppm [5] | percent effect (mortality or growth inhibition) at 200 ppm [6] | mortality at 200 ppm [7] | mortality at 24 ppm [8] | mortality at 12.5 ppm [9] | mortality at 200 ppm [10]

CCS(=O)(=O)c1cc(C2(C#N)CC2)cnc1N1Cc2cnc(C(F)(F)F)cc2C1=O [Compound P8, 1-[5-ethylsulfonyl-6-[1-oxo-6-(trifluoromethyl)-3H-pyrrolo[3,4-c]pyridin-2-yl]-3-pyridyl]cyclopropanecarbonitrile]
≥ 80%: mortality at 50 ppm [1] | percent effect (mortality or growth inhibition) at 200 ppm [2] | percent control (mortality, anti-feedant effect or growth inhibition) at 200 ppm [3] | mortality at 50 ppm [4] | percent effect (mortality or growth inhibition) at 200 ppm [5] | mortality at 200 ppm [11] | percent effect (mortality or growth inhibition) at 200 ppm [6] | mortality at 200 ppm [7] | mortality at 24 ppm [8] | mortality at 12.5 ppm [9] | mortality at 200 ppm [10]

N#CC1(c2cnc(N3Cc4cnc(C(F)(F)F)cc4C3=O)c(S(=O)(=O)CC3CC3)c2)CC1 [Compound P28, 1-[5-(cyclopropylmethylsulfonyl)-6-[1-oxo-6-(trifluoromethyl)-3H-pyrrolo[3,4-c]pyridin-2-yl]-3-pyridyl]cyclopropanecarbonitrile]
≥ 80%: percent effect (mortality or growth inhibition) at 200 ppm [2] | percent control (mortality, anti-feedant effect or growth inhibition) at 200 ppm [3] | mortality at 200 ppm [12] | percent effect (mortality or growth inhibition) at 200 ppm [5] | mortality at 200 ppm [11] | percent effect (mortality or growth inhibition) at 200 ppm [6] | mortality at 200 ppm [7]
